Test results from ChEMBL document CHEMBL1131396, “Structure-activity studies related to ABT-594, a potent nonopioid analgesic agent: effect of pyridine and azetidine ring substitutions on nicotinic acetylcholine receptor binding affinity and analgesic activity in mice” (Bioorg Med Chem Lett, 1998).

Legend:
Mus musculus = species: Mus musculus; assay: Analgesic activity in a mouse hot plate assay; format: functional
[1] = molecular target: Neuronal acetylcholine receptor; alpha4/beta2 (Rattus norvegicus, UniProt P09483+P12390); assay: Binding affinity towards Nicotinic acetylcholine receptor alpha4-beta2 in rat brain using [3H]-cytisine as radioligand; format: tissue-based
IMR-32 [2] = assay: Maximal response of compound at 1 uM concentration in an in vitro [86Rb+] release assay using IMR-32 cells; format: functional, Homo sapiens
IMR-32 [3] = assay: Maximal response of compound was determined in an in vitro [86Rb+] release assay using IMR-32 cells; format: functional, Homo sapiens
IMR-32 [4] = assay: Maximal response of compound at concentration 3 uM concentration in an in vitro [86Rb+] release assay using IMR-32 cells; format: functional, Homo sapiens
IMR-32 [5] = assay: Maximal response of compound at 10 uM concentration in an in vitro [86Rb+] release assay using IMR-32 cells; format: functional, Homo sapiens

Neuronal acetylcholine receptor; alpha4/beta2, sequence (P09483 whole entry): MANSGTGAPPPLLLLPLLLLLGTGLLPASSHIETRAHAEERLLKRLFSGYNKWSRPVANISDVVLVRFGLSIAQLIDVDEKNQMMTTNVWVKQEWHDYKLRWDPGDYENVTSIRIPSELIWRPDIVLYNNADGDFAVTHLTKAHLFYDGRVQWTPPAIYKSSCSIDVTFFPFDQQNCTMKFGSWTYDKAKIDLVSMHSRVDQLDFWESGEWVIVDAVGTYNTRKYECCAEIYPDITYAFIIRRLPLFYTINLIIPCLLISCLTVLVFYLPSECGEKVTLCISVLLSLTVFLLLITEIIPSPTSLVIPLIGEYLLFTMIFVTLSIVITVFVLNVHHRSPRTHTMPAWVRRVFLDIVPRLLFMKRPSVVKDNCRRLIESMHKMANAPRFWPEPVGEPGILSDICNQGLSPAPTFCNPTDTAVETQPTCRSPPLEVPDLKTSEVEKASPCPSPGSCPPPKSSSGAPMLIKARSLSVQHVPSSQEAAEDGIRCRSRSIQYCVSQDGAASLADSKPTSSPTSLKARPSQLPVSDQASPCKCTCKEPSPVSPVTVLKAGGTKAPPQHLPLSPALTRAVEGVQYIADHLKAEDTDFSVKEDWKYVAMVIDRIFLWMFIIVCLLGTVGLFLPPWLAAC
Neuronal acetylcholine receptor; alpha4/beta2, sequence (P12390 whole entry): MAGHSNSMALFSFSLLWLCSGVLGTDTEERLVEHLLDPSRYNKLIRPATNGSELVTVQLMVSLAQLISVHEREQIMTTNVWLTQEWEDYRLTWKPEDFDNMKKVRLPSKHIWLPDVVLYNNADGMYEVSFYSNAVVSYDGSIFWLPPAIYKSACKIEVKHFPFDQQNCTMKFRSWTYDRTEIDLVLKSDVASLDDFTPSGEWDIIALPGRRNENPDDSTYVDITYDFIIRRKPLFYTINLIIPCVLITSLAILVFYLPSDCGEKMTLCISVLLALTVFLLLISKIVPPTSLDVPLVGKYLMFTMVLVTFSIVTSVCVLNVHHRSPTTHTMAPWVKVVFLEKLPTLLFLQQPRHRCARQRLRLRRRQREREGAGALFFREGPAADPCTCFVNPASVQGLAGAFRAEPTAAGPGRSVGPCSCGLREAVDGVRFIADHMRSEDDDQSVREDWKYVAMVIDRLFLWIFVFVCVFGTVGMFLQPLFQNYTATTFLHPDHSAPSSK

In the case of `Fc1ncccc1OC[C@@H]1CCN1`, the MED (Mus musculus) is reported as 1.9 µM/kg.
With `Brc1ccc(OC[C@H]2CCN2)cn1` the MED (Mus musculus) was 0.62 µM/kg.
Work on `Clc1ncc(OC[C@@H]2CCN2)cc1Br` yielded a Ki [1] of 0.015 nM and an MED (Mus musculus) of 1.9 µM/kg.
Work on `O=[N+]([O-])c1cncc(OC[C@@H]2CCN2)c1` yielded an MED (Mus musculus) of 62 µM/kg.
In the case of `Fc1ccc(OC[C@@H]2CCN2)cn1`, the Ki [1] is reported as 0.057 nM and the MED (Mus musculus) is reported as 6.2 µM/kg.
For `Clc1ccncc1OC[C@H]1CCN1`, the Ki [1] was 12 nM and the MED (Mus musculus) was over 6.2 µM/kg.
Molecule `Fc1ncccc1OC[C@H]1CCN1` has an MED (Mus musculus) of over 62 µM/kg.
With `Clc1ncc(OC[C@@H]2CCN2)cc1-c1ccccc1` the Ki [1] was 0.022 nM, the MED (Mus musculus) was over 6.2 µM/kg and the Max response (IMR-32 [2]) was 92%.
`N#Cc1ccc(OC[C@@H]2CCN2)cn1` was tested, and the MED (Mus musculus) was 62 µM/kg.
For `Brc1ccc(OC[C@@H]2CCN2)cn1`, the Ki [1] was 0.021 nM and the MED (Mus musculus) was over 6.2 µM/kg.
For `Clc1ncccc1OC[C@H]1CCN1`, the MED (Mus musculus) was 62 µM/kg.
In the case of `Clc1ccc(OC[C@@H]2CCN2)cn1`, the Max response (IMR-32 [3]) is reported as 166%, the Ki [1] is reported as 0.04 nM and the MED (Mus musculus) is reported as 0.62 µM/kg.
`Cc1ncccc1OC[C@@H]1CCN1` gave a Ki [1] of 1.36 nM and an MED (Mus musculus) of over 62 µM/kg.
`Fc1ccc(OC[C@H]2CCN2)cn1` showed a Ki [1] of 0.066 nM and an MED (Mus musculus) of 1.9 µM/kg.
`c1cncc(OC[C@@H]2CCN2)c1` gave a Max response (IMR-32 [3]) of 113%, a Ki [1] of 0.052 nM and an MED (Mus musculus) of over 6.2 µM/kg.
In the case of `C=Cc1ccc(OC[C@@H]2CCN2)cn1`, the Ki [1] is reported as 1.25 nM and the MED (Mus musculus) is reported as over 62 µM/kg.
For `Clc1ccncc1OC[C@@H]1CCN1`, the Ki [1] was 260 nM and the MED (Mus musculus) was over 62 µM/kg.
`Nc1cncc(OC[C@@H]2CCN2)c1` was tested, and the Ki [1] was 0.082 nM and the MED (Mus musculus) was over 62 µM/kg.
`COc1ccc(OC[C@H]2CCN2)cn1` gave an MED (Mus musculus) of over 62 µM/kg.
Work on `CC(=O)NCc1cncc(OC[C@@H]2CCN2)c1` yielded a Ki [1] of 0.54 nM and an MED (Mus musculus) of over 62 µM/kg.
For `NCc1cncc(OC[C@@H]2CCN2)c1`, the Ki [1] was 4.4 nM and the MED (Mus musculus) was over 6.2 µM/kg.
For `Cc1ccc(OC[C@H]2CCN2)cn1`, the Ki [1] was 0.053 nM and the MED (Mus musculus) was 6.2 µM/kg.
Work on `N#Cc1cncc(OC[C@@H]2CCN2)c1` yielded a Ki [1] of 0.025 nM and an MED (Mus musculus) of over 6.2 µM/kg.
In the case of `Clc1ncccc1OC[C@@H]1CCN1`, the MED (Mus musculus) is reported as 62 µM/kg.
`Cc1nc(Cl)ccc1OC[C@@H]1CCN1` showed a Ki [1] of 2.4 nM and an MED (Mus musculus) of over 62 µM/kg.
In the case of `Cc1ccc(OC[C@@H]2CCN2)cn1`, the Ki [1] is reported as 0.057 nM and the MED (Mus musculus) is reported as 0.62 µM/kg.
For `CCc1ccc(OC[C@@H]2CCN2)cn1`, the Ki [1] was 19 nM and the MED (Mus musculus) was over 6.2 µM/kg.
With `Clc1cncc(OC[C@@H]2CCN2)c1` the Ki [1] was 0.042 nM and the MED (Mus musculus) was over 6.2 µM/kg.
For `Oc1cncc(OC[C@H]2CCN2)c1`, the Ki [1] was 0.088 nM and the MED (Mus musculus) was over 62 µM/kg.
`Clc1cncc(OC[C@H]2CCN2)c1` showed an MED (Mus musculus) of 62 µM/kg.
`c1ccc(-c2ccc(OC[C@@H]3CCN3)cn2)cc1` showed a Ki [1] of 2.3 nM and an MED (Mus musculus) of over 62 µM/kg.
`CC1(C)CN[C@H]1COc1ccc(Cl)nc1` gave a Ki [1] of 37 nM.
With `c1ccc(-c2cncc(OC[C@@H]3CCN3)c2)cc1` the Max response (IMR-32 [4]) was 45%, the Ki [1] was 0.046 nM and the MED (Mus musculus) was over 62 µM/kg.
In the case of `CCc1cncc(OC[C@@H]2CCN2)c1`, the Ki [1] is reported as 0.1 nM, the Max response (IMR-32 [5]) is reported as 90% and the MED (Mus musculus) is reported as over 62 µM/kg.
Molecule `Cc1cncc(OC[C@@H]2CCN2)c1` has a Ki [1] of 0.047 nM and an MED (Mus musculus) of over 62 µM/kg.
In the case of `Fc1cncc(OC[C@@H]2CCN2)c1`, the Ki [1] is reported as 0.076 nM and the MED (Mus musculus) is reported as 6.2 µM/kg.
Work on `CCOc1cncc(OC[C@@H]2CCN2)c1` yielded a Ki [1] of 0.039 nM and an MED (Mus musculus) of 62 µM/kg.
Molecule `FC(F)(F)c1cncc(OC[C@@H]2CCN2)c1` has a Ki [1] of 0.49 nM and an MED (Mus musculus) of over 19 µM/kg.
Molecule `Brc1cncc(OC[C@@H]2CCN2)c1` has a Ki [1] of 0.18 nM and an MED (Mus musculus) of over 19 µM/kg.
For `CCCc1cncc(OC[C@@H]2CCN2)c1`, the Ki [1] was 0.039 nM and the MED (Mus musculus) was 62 µM/kg.
Work on `COc1ccc(OC[C@@H]2CCN2)cn1` yielded a Ki [1] of 1.3 nM and an MED (Mus musculus) of over 62 µM/kg.
For `Cc1cncc(OC[C@H]2CCN2)c1`, the Ki [1] was 0.16 nM and the MED (Mus musculus) was 62 µM/kg.
`C[C@@H]1CN[C@H]1COc1ccc(Cl)nc1` showed a Ki [1] of 7.6 nM.
`Clc1cc(OC[C@@H]2CCN2)cnc1Cl` was tested, and the Ki [1] was 0.023 nM and the MED (Mus musculus) was 0.62 µM/kg.
`Clc1ccc(OC[C@H]2CCN2)cn1` [TEBANICLINE] showed a Ki [1] of 0.04 nM and an MED (Mus musculus) of 0.62 µM/kg.
